This assay has as its system spontaneously hypertensive rats. Kind of assay: Antihypertensive action (systolic blood pressure, caudal artery) in male spontaneously hypertensive rats. It is filed as in vivo, rat. Particulars: 10 mg/kg oral; for Change in blood pressure 1 hr. after treatment / Change in blood pressure 5 hrs. after treatment: after minus before medication, * P < 0.05 vs control; for Duration of antihypertensive effect: measured 1, 5, 8 and 24 hours after administration. How it is done: Male spontaneously hypertensive rats aged 10 to 11 weeks were used (in groups of 3 to 6 individuals). […] Each test compound was suspended in a 5% solution of gum arabic and orally administered. The dosage was 10 mg/kg for all compounds. Animals in a control group was given the above solution of gum arabic only.

Consider “2-[4-(4-fluorophenyl)-1-piperazinyl]ethyl methyl 4-(3-chlorophenyl)-2,6-dimethyl-1,4-dihydropyridine-3,5-dicarboxylate [Example 42]”, for which the “Change in blood pressure 1 hr. after treatment” value was -25 mmHg, the “Change in blood pressure 5 hrs. after treatment” value is -35 mmHg and the “Duration of antihypertensive effect” value lay in the range of 8 to 24 h.

Take `CCOC(=O)C1=C(C)NC(C)=C(C(=O)OCCN2CCN(C(c3ccccc3)c3ccccc3)CC2)C1c1cccc([N+](=O)[O-])c1` (stereo not drawn) [Example 2, 2-(4-benzhydryl-1-piperazinyl)ethyl ethyl 2,6-dimethyl-4-(3-nitrophenyl)-1,4-dihydropyridine-3,5-dicarboxylate]: the “Change in blood pressure 1 hr. after treatment” value is -99 mmHg, the “Change in blood pressure 5 hrs. after treatment” value is -101 mmHg and the “Duration of antihypertensive effect” value is 8 to 24 h.

`CCOC(=O)C1=C(C)NC(C)=C(C(=O)OCCN2CCN(C(c3ccccc3)c3ccccc3)CC2)C1c1cccc(Cl)c1Cl` (stereo not drawn) [Example 7, 2-(4-benzhydryl-1-piperazinyl)ethyl ethyl 4-(2,3-dichlorophenyl)-2,6-dimethyl-1,4-dihydropyridine-3,5-dicarboxylate]: the “Change in blood pressure 1 hr. after treatment” value is listed as -59 mmHg, the “Change in blood pressure 5 hrs. after treatment” value was -79 mmHg and the “Duration of antihypertensive effect” value is > 24 h.

With `COC(=O)C1=C(C)NC(C)=C(C(=O)OCCN2CCN(C(c3ccc(C)cc3)c3ccc(C)cc3)CC2)C1c1cccc([N+](=O)[O-])c1` (stereo not drawn) [Example 9, 2-[4-(4,4'-dimethylbenzhydryl)-1-piperazinyl]ethyl methyl 2,6-dimethyl-4-(3-nitrophenyl)-1,4-dihydropyridine-3,5-dicarboxylate], the “Change in blood pressure 1 hr. after treatment” value is -96 mmHg, the “Change in blood pressure 5 hrs. after treatment” value was -98 mmHg and the “Duration of antihypertensive effect” value was > 24 h.

Turning to `COC(=O)C1=C(C)NC(C)=C(C(=O)OCCN2CCN(C(c3ccc(Cl)cc3)c3ccc(Cl)cc3)CC2)C1c1cccc([N+](=O)[O-])c1` (stereo not drawn) [Example 12, 2-[4-(4,4'-dichlorobenzhydryl)-1-piperazinyl]ethyl methyl 2,6-dimethyl-4-(3-nitrophenyl)-1,4-dihydropyridine-3,5-dicarboxylate], the “Change in blood pressure 1 hr. after treatment” value is on record as -85 mmHg, the “Change in blood pressure 5 hrs. after treatment” value is -87 mmHg and the “Duration of antihypertensive effect” value was > 24 h.

In the case of `COC(=O)C1=C(C)NC(C)=C(C(=O)OCCN2CCN(C(c3ccc(F)cc3)c3ccc(F)cc3)CC2)C1c1cccc(Cl)c1Cl` (stereo not drawn) [Example 13, 2-[4-(4,4'-difluorobenzhydryl)-1-piperazinyl]ethyl methyl 4-(2,3-dichlorophenyl)-2,6-dimethyl-1,4-dihydropyridine-3,5-dicarboxylate], the “Change in blood pressure 1 hr. after treatment” value is recorded as -34 mmHg, the “Change in blood pressure 5 hrs. after treatment” value is -31 mmHg and the “Duration of antihypertensive effect” value lay in the range of 8 to 24 h.

As to `COC(=O)C1=C(C)NC(C)=C(C(=O)OCCN2CCN(c3ccc(F)cc3)CC2)C1c1cccc([N+](=O)[O-])c1.Cl` (stereo not drawn) [Example 16, 2-[4-(4-fluorophenyl)-1-piperazinyl]ethyl methyl 2,6-dimethyl-4-(3-nitrophenyl)-1,4-dihydropyridine-3,5-dicarboxylate hydrochloride], the “Change in blood pressure 1 hr. after treatment” value is -51 mmHg, the “Change in blood pressure 5 hrs. after treatment” value was -45 mmHg and the “Duration of antihypertensive effect” value fell in the range of 8 to 24 h.

Turning to `COC(=O)C1=C(C)NC(C)=C(C(=O)OCCN2CCN(c3cccc(Cl)c3)CC2)C1c1cccc([N+](=O)[O-])c1` (stereo not drawn) [Example 17, 2-[4-(3-chlorophenyl)-1-piperazinyl]ethyl methyl 2,6-dimethyl-4-(3-nitrophenyl)-1,4-dihydropyridine-3,5-dicarboxylate], the “Change in blood pressure 1 hr. after treatment” value is -77 mmHg, the “Change in blood pressure 5 hrs. after treatment” value is recorded as -46 mmHg and the “Duration of antihypertensive effect” value fell in the range of 8 to 24 h.

In the case of `CCOC(=O)C1=C(C)NC(C)=C(C(=O)OCCN2CCN(C(c3ccc(C)cc3)c3ccc(C)cc3)CC2)C1c1cccc(Cl)c1Cl` (stereo not drawn) [Example 24, 2-[4-(4,4'-dimethylbenzhydryl)-1-piperazinyl]ethyl ethyl 4-(2,3-dichlorophenyl)-2,6-dimethyl-1,4-dihydropyridine-3,5-dicarboxylate], the “Change in blood pressure 1 hr. after treatment” value is listed as -49 mmHg, the “Change in blood pressure 5 hrs. after treatment” value is listed as -30 mmHg and the “Duration of antihypertensive effect” value was “ca. 8 hrs”.

Consider `CCOC(=O)C1=C(C)NC(C)=C(C(=O)OCCN2CCN(C(c3ccccc3)c3ccccc3)CC2)C1c1cccc(Cl)c1` (stereo not drawn) [Example 28, 2-(4-benzhydryl-1-piperazinyl)ethyl ethyl 4-(3-chlorophenyl)-2,6-dimethyl-1,4-dihydropyridine-3,5-dicarboxylate], for which the “Change in blood pressure 1 hr. after treatment” value is -93 mmHg, the “Change in blood pressure 5 hrs. after treatment” value was -75 mmHg and the “Duration of antihypertensive effect” value was 8 to 24 h.

Take `COCCOC(=O)C1=C(C)NC(C)=C(C(=O)OCCN2CCN(C(c3ccccc3)c3ccccc3)CC2)C1c1cccc([N+](=O)[O-])c1` (stereo not drawn) [Example 30, 2-(4-benzhydryl-1-piperazinyl)ethyl 2-methoxyethyl 2,6-dimethyl-4-(3-nitrophenyl)-1,4-dihydropyridine-3,5-dicarboxylate]: the “Change in blood pressure 1 hr. after treatment” value is on record as -48 mmHg, the “Change in blood pressure 5 hrs. after treatment” value is -31 mmHg and the “Duration of antihypertensive effect” value is 8 to 24 h.

As to `CCOC(=O)C1=C(C)NC(C)=C(C(=O)OCCN2CCN(C(c3ccc(C)cc3)c3ccc(C)cc3)CC2)C1c1cccc(C(F)(F)F)c1` (stereo not drawn) [Example 32, 2-[4-(4,4'-dimethylbenzhydryl)-1-piperazinyl]ethyl ethyl 2,6-dimethyl-4-(3-trifluoromethylphenyl)-1,4-dihydropyridine-3,5-dicarboxylate], the “Change in blood pressure 1 hr. after treatment” value is listed as -46 mmHg, the “Change in blood pressure 5 hrs. after treatment” value is given as -48 mmHg and the “Duration of antihypertensive effect” value lay in the range of 8 to 24 h.

In the case of `CCOC(=O)C1=C(C)NC(C)=C(C(=O)OCCN2CCN(C(c3ccc(C)cc3)c3ccc(C)cc3)CC2)C1c1cccc(Cl)c1` (stereo not drawn) [Example 33, 2-[4-(4,4'-dimethylbenzhydryl)-1-piperazinyl]ethyl ethyl 4-(3-chlorophenyl)-2,6-dimethyl-1,4-dihydropyridine-3,5-dicarboxylate], the “Change in blood pressure 1 hr. after treatment” value was -51 mmHg, the “Change in blood pressure 5 hrs. after treatment” value is given as -60 mmHg and the “Duration of antihypertensive effect” value was 8 to 24 h.

Turning to `COC(=O)C1=C(C)NC(C)=C(C(=O)OCCCN2CCN(C(c3ccccc3)c3ccccc3)CC2)C1c1cccc(Cl)c1` (stereo not drawn) [Example 38, 3-(4-benzhydryl-1-piperazinyl)propyl methyl 4-(3-chlorophenyl)-2,6-dimethyl-1,4-dihydropyridine-3,5-dicarboxylate], the “Change in blood pressure 1 hr. after treatment” value is listed as -50 mmHg, the “Change in blood pressure 5 hrs. after treatment” value is listed as -42 mmHg and the “Duration of antihypertensive effect” value lay in the range of 8 to 24 h.
